Test results reported in ChEMBL document CHEMBL3137440, “DNDi T. cruzi fenarimol series dataset from which preclinical candidate EPL-BS0967 was identified (see also related datasets: CHEMBL3137386 and CHEMBL2448688)”.
Values after ≈ are worked out from the molar mass of the structure shown.

Key:
[1] = system: Trypanosoma cruzi; assay: (§1) DNDI: Chagas in Vitro; assay type: functional, Tulahuen C4 (LacZ)
[2] = system: Trypanosoma cruzi; assay: as §1; assay type: functional, organism-based, Tulahuen C4 (LacZ)
[3] = DNDI: Solubility in 0.01M HCl at pH 2 determined by nephelometry
[4] = in vitro; conditions: human, microsomes
[5] = DNDI: Solubility in phosphate buffer at pH 6.5 determined by nephelometry
[6] = DNDI: Lipophilicity (gLogD) at pH 7.4; conditions: buffer
[7] = DNDI: Lipophilicity (gLogD) at pH 3; conditions: buffer
[8] = in vitro; conditions: human, microsomes; remark: listed apart in the source
[9] = DNDI: Cytotoxicity against L-6 rat myoblasts from skeletal musclE; conditions: L6 rat skeletal muscle myoblasts, IC50
[10] = Trypanosoma cruzi, Tulahuen C4 (LacZ)

Row | Compound | IC90 [1, 10] | IC50 [2, 10] | IC50 [9] | other results
1 | FC(F)(F)c1ccc(N(c2cccnc2)C2CCN(c3ccc(C(F)(F)F)nc3)CC2)cc1 | 32 nM | – | – | –
2 | FC(F)(F)c1ccc(N(c2cccnc2)C2CCN(c3ccccn3)CC2)cc1 | 51 nM | 24 nM | – | –
3 | FC(F)(F)c1ccc(N(c2cccnc2)C2CCN(c3ccc(Cl)cn3)CC2)cc1 | 83 nM | 39 nM | – | –
4 | CC(C)(C)N1CCC(N(c2ccc(C(F)(F)F)cc2)c2cccnc2)CC1 | 1070 nM | 603 nM | – | –
5 | O=C(c1ccccc1)N1CCC(N(c2ccc(C(F)(F)F)cc2)c2cccnc2)CC1 | 16.6 nM | 7.46 nM | – | –
6 | FC(F)(F)c1ccc(N(c2cccnc2)C2CCN(Cc3ccccc3C(F)(F)F)CC2)cc1 | 36 nM | 9 nM | – | solubility kinetic [3]: > 100 µg/mL; microsomal CLint ([4]; CLint): 92.8 µL/min/mg; solubility kinetic [5]: 1.6 µg/mL (≈ 3.34 µM); chromatographic logD ([6]; pH 7.4, logD): > 5.3; chromatographic logD ([7]; pH 3, logD): 2.7; half-life ([8]; t (1 / 2)): 18.7 min
7 | Fc1ccccc1CN1CCC(N(c2ccc(C(F)(F)F)cc2)c2cccnc2)CC1 | 40 nM | 21 nM | – | –
8 | Cc1ccccc1CN1CCC(N(c2ccc(C(F)(F)F)cc2)c2cccnc2)CC1 | 19 nM | 7 nM | – | solubility kinetic [3]: > 100 µg/mL; microsomal CLint ([4]; CLint): 123 µL/min/mg; chromatographic logD ([6]; pH 7.4, logD): > 5.3; chromatographic logD ([7]; pH 3, logD): 2; half-life ([8]; t (1 / 2)): 14.1 min
9 | FC(F)(F)c1ccc(N(c2cccnc2)C2CCN(c3ccccc3C(F)(F)F)CC2)cc1 | 36 nM | 15 nM | – | –
10 | O=C(c1c(F)cccc1F)N1CCC(N(c2ccc(C(F)(F)F)cc2)c2cccnc2)CC1 | 9 nM | 2 nM | 48900 nM | –
11 | Cc1ccc(CN2CCC(N(c3ccc(C(F)(F)F)cc3)c3cccnc3)CC2)cc1 | > 100 nM | 67 nM | 45600 nM | –
12 | FC(F)(F)c1ccc(CN2CCC(N(c3ccc(C(F)(F)F)cc3)c3cccnc3)CC2)cc1 | 80 nM | 33 nM | – | –
13 | COc1cccc(CN2CCC(N(c3ccc(C(F)(F)F)cc3)c3cccnc3)CC2)c1 | 90 nM | 56 nM | 36800 nM | –
14 | Cc1cccc(CN2CCC(N(c3ccc(C(F)(F)F)cc3)c3cccnc3)CC2)c1 | 79 nM | 44 nM | 42900 nM | –
15 | FC(F)(F)c1ccc(N(c2cccnc2)C2CCN(c3nccs3)CC2)cc1 | 31 nM | – | 41500 nM | solubility kinetic [3]: > 100 µg/mL; microsomal CLint [4]: 161 µL/min/mg; solubility kinetic [5]: 1.6 µg/mL (≈ 3.96 µM); chromatographic logD ([6]; pH 7.4): 4.3; chromatographic logD ([7]; pH 3): 3.1; half-life [8]: 10.8 min
16 | FC(F)(F)c1ccc(N(c2cccnc2)C2CCN(c3cccc(C(F)(F)F)c3)CC2)cc1 | 312 nM | 210 nM | > 100000 nM | –
17 | FC(F)(F)c1ccc(N(c2cccnc2)C2CCN(c3ccc(C(F)(F)F)cn3)CC2)cc1 | – | – | – | IC50 [2]: 19.7 nM; IC90 [1]: > 100 nM
18 | Cc1ccc(N2CCC(N(c3ccc(C(F)(F)F)cc3)c3cccnc3)CC2)cn1 | 340 nM | 151 nM | > 100000 nM | –
19 | Cc1cncc(N2CCC(N(c3ccc(C(F)(F)F)cc3)c3cccnc3)CC2)c1 | 27 nM | 9 nM | – | –
20 | CC(C)(O)CN1CCC(N(c2ccc(C(F)(F)F)cc2)c2cccnc2)CC1 | 30 nM | 11 nM | – | –
21 | CN(C)S(=O)(=O)c1ccccc1N1CCC(N(c2ccc(C#N)cc2)c2cccnc2)CC1 | 28 nM | 10 nM | – | –
22 | CC(C)(C)OC(=O)N1CCC(N(c2ccc(Cl)cc2)c2cccnc2)CC1 | 3.26 nM | 1.03 nM | 52800 nM | –
23 | CC(C)(C)OC(=O)N1CCC(N(c2ccc(C(F)(F)F)cc2)c2cccnc2)CC1 | 9.9 nM | 5.12 nM | 22200 nM | –
24 | CN(C)S(=O)(=O)c1cc(C(F)(F)F)ccc1N1CCC(N(c2ccc(C#N)cc2)c2cccnc2)CC1 | 11 nM | 6 nM | > 100000 nM | –
25 | N#Cc1ccc(N(c2cccnc2)C2CCN(c3ccc(C(F)(F)F)cc3C#N)CC2)cc1 | 4 nM | 2 nM | > 100000 nM | –
